How the values were obtained:
acute toxicity in rats = conditions: rat, in vivo
rats and mice = experiment: toxicological studies (acute, subacute, chronic); format: in vivo; conditions: acute (several routes), subacute (oral, one month), chronic (oral, six months)
[1] = tested on: type I (immediate type) allergic reaction; conditions: own earlier publications; cited from earlier work
[2] = disclosed in earlier patents; cited from earlier work
[3] = tested on: Arthus reaction (type III allergic reaction); conditions: own earlier publication; cited from earlier work
acute toxicity in mice = conditions: mouse, in vivo
[4] = tested on: Adjuvant-induced Secondary Inflammation; experiment: adjuvant-induced arthritis in rats, secondary inflammation; format: in vivo, female Wistar rats
Experimental: (§1) Eight female Wistar rats in each group, weighing 140-200 g were used. The arthritis was induced by intradermal injection of Mycobacterium butyricum suspended in liquid paraffin (0.6 mg/0.1 ml) as the adjuvant to tail. The change in volume of both legs due to the formation of edema was measured 12, 16 and 19 days after the adjuvant challenge. In addition, a severity of the secondary inflammation observed in auricles, paws, legs and tail was graded into the degrees of 0-4.

[5] = tested on: Adjuvant-induced Edema in Right Legs; experiment: adjuvant-induced arthritis in rats, edema in right legs; format: in vivo, female Wistar rats
Experimental: as §1

[6] = tested on: adjuvant-induced experimental arthritis; experiment: adjuvant-induced experimental arthritis in rats (overall); format: in vivo; conditions: oral, 20 mg/kg once or 10 mg/kg twice every day
Experimental: as §1

[7] = tested on: Adjuvant-induced Edema in Left Legs; experiment: adjuvant-induced arthritis in rats, edema in left legs; format: in vivo, female Wistar rats
Experimental: as §1

[8] = disclosed in earlier patents; cited from earlier work; remark: listed apart in the source
[9] = 10 × 2 mg/kg/day p.o., 12th day
[10] = 10 × 2 mg/kg/day p.o., 16th day
[11] = 10 × 2 mg/kg/day p.o., 19th day

Compound: CC(C)C(=O)c1c(C(C)C)nn2ccccc12 [KC-404, 3-isobutyryl-2-isopropylpyrazalo[1,5-a]pyridine]
- LD50 (acute toxicity in rats; ip, Female): 419 mg/kg
- LD50 (acute toxicity in rats; ip, Male): 500 mg/kg
- LD50 (acute toxicity in rats; iv, Female): 42.5 mg/kg
- LD50 (acute toxicity in rats; iv, Male): 43.2 mg/kg
- LD50 (acute toxicity in rats; po, Female): 1400 mg/kg
- LD50 (acute toxicity in rats; sc, Female): 1370 mg/kg
- LD50 (acute toxicity in rats; sc, Male): 1450 mg/kg
- toxicity (rats and mice): low in toxicity
- effect on type I allergic reaction [1]: inhibitory effect
- cerebral vasodilating effect [2]: Cerebral vasodilating
- effect on the Arthus reaction (type III allergic reaction) [3]: inhibits
- LD50 (acute toxicity in mice; ip, Female): 500 mg/kg
- LD50 (acute toxicity in mice; ip, Male): 460 mg/kg
- LD50 (acute toxicity in mice; iv, Female): 146 mg/kg
- LD50 (acute toxicity in mice; iv, Male): 160 mg/kg
- LD50 (acute toxicity in mice; po, Female): 1860 mg/kg
- LD50 (acute toxicity in mice; po, Male): 1880 mg/kg
- LD50 (acute toxicity in mice; sc, Female): 3100 mg/kg
- LD50 (acute toxicity in mice; sc, Male): 3000 mg/kg
- Inflammation Score ([4]; 20 mg/kg/day p.o., 16th day, control 11.8): 6.6
- Inflammation Score ([4]; 20 mg/kg/day p.o., 19th day, control 17.0): 10.3
- Inflammation Score ([4]; 10 × 2 mg/kg/day p.o., 16th day, control 11.8): 9.0
- Inflammation Score ([4]; 10 × 2 mg/kg/day p.o., 19th day, control 17.0): 11.4
- Inhibition of edema in right legs ([5]; 20 mg/kg/day p.o., 12th day): 44.4%
- Inhibition of edema in right legs ([5]; 20 mg/kg/day p.o., 16th day): 80.8%
- Inhibition of edema in right legs ([5]; 20 mg/kg/day p.o., 19th day): 53.1%
- Inhibition of edema in right legs [5, 9]: 19.8%
- Inhibition of edema in right legs [5, 10]: 56.6%
- Inhibition of edema in right legs [5, 11]: 39.9%
- inhibition of the production of adjuvant-induced experimental arthritis [6]: markedly inhibits
- Inhibition of edema in left legs ([7]; 20 mg/kg/day p.o., 12th day): 71.7%
- Inhibition of edema in left legs ([7]; 20 mg/kg/day p.o., 16th day): 79.9%
- Inhibition of edema in left legs ([7]; 20 mg/kg/day p.o., 19th day): 61.1%
- Inhibition of edema in left legs [7, 9]: 50.2%
- Inhibition of edema in left legs [7, 10]: 28.6%
- Inhibition of edema in left legs [7, 11]: 41.9%
- bronchodilating effect [8]: bronchodilating

Compound: C[C@]12CCC(=O)C=C1CC[C@@H]1[C@@H]2[C@@H](O)C[C@@]2(C)[C@H]1CC[C@]2(O)C(=O)CO [Hydrocortisone, reference compound]
- Inflammation Score ([4]; 5 mg/kg/day p.o., 16th day, control 11.8): 8.1
- Inflammation Score ([4]; 5 mg/kg/day p.o., 19th day, control 17.0): 9.3
- Inhibition of edema in right legs ([5]; 5 mg/kg/day p.o., 12th day): 90.9%
- Inhibition of edema in right legs ([5]; 5 mg/kg/day p.o., 16th day): 60.1%
- Inhibition of edema in right legs ([5]; 5 mg/kg/day p.o., 19th day): 57.8%
- Inhibition of edema in left legs ([7]; 5 mg/kg/day p.o., 12th day): 57.0%
- Inhibition of edema in left legs ([7]; 5 mg/kg/day p.o., 16th day): 53.1%
- Inhibition of edema in left legs ([7]; 5 mg/kg/day p.o., 19th day): 54.7%

Source: US4735954A, “Anti-rheumatic agent” (priority 1985, dated 1988)
